This note sets out measurements from patent US7273877B2, “5-substituted-4-[(substituted phenyl) amino]-2-pyridone derivatives” (Warner-Lambert Company, LLC, priority 2003, dated 2007).

SMILES strings stand for the structures.

The subject of data set [1] is phosphorylation of MAP kinase (ERK) in murine colon 26 (C26) carcinoma cells. Description: Cellular inhibition of ERK phosphorylation, C26ELSA (pERK ELISA format). The conditions noted are these: Mus musculus, 1 h, C26 cells treated with test compound for one hour at 37° C. It is filed as cell-based. The method, then:
(§1) MEK inhibitors were evaluated by determining their ability to inhibit phosphorylation of MAP kinase (ERK) in murine colon 26 (C26) carcinoma cells. Since ERK1 and ERK2 represent the only known substrates for MEK1and MEK2, the measurement of inhibition of ERK phosphorylation in cells provides direct read out of cellular MEK inhibition by the compounds of the invention. Detection of phosphorylation of ERK was carried out either by Western blot or ELISA format. Briefly, the assays involve treatment of exponentially growing C26 cells with varying concentrations of the test compound (or vehicle control) for one hour at 37° C. For Western blot assay, cells were rinsed free of compound/vehicle and lysed in a solution containing 70 mM NaCl, 50 mM glycerol phosphate, 10 mM HEPES, pH 7.4, 1% Triton X-100, 1 mM Na3VO4, 100 μM PMSF, 10 μM leupeptin and 10 μM pepstatin. Supernatants were then subjected to gel electrophoresis and hybridized to a primary antibody recognizing dually phosphorylated ERK1 and ERK2. To evaluate total MAPK levels, blots were subsequently ‘stripped’ and re-probed with a 1:1 mixture of polyclonal antibodies recognizing unphosphorylated ERK1 and ERK2. For pERK ELISA assay, pERK TiterZyme Enzyme immunometric Assay kits were acquired from Assay Designs, Inc (Ann Arbor, Mich.). Briefly, cells were harvested in lysis solution containing 50 mM β-glycerophosphate, 10 mM HEPES, ph7.4, 70 mM NaCl, 2 mM EDTA and 1% SDS and protein lysates were diluted 1:15 with supplied Assay buffer prior to the execution of the assay. The subsequent steps were carried out essentially as recommended by the manufacturer.
(§2) The inhibition data generated by the above protocols is disclosed in Table I. If several concentrations of inhibitor were tested, IC50 values (the concentration which gives 50% inhibition) were determined graphically from the dose response curve for % inhibition. Otherwise, percent inhibitions at measured concentrations are reported.

Data set [2] has the same test system. In words: Cellular inhibition of ERK phosphorylation, C26CPA1. Type of data set: cell-based. The note with it: Mus musculus, 1 h; C26 cells treated with test compound for one hour at 37° C. The method, then: as §1, §2

`NC(=O)c1c[nH]c(=O)cc1Nc1ccc(I)cc1F` [Example 19, 4-(2-Fluoro-4-iodoanilino)-6-oxo-1,6-dihydro-3-pyridinecarboxamide] registered a melting point of 320 to 325 °C. The same molecule registered an IC50 in data set [1] of 0.11 µM. For `Cn1cc(C(N)=O)c(Nc2ccc(CCCO)cc2F)cc1=O` [Example 21, 4-[2-Fluoro-4-(3-hydroxypropyl)anilino}-1-methyl-6-oxo-1,6-dihydro-3-pyridinecarboxamide], the melting point was 214 to 216 °C. Also, the IC50 in data set [1] is 0.63 µM. In the case of `Cc1ccc(Nc2cc(=O)n(C)cc2C(N)=O)c(F)c1` [Example 37, 4-(2-Fluoro-4-methylanilino)-1-methyl-6-oxo-1,6-dihydro-3-pyridinecarboxamide], the melting point lay in the range of 285 to 288 °C. This molecule gave an IC50 in data set [1] of at least 5 µM. For `CCOC(=O)c1cn(C)c(=O)cc1Nc1ccc2c(c1)CCC2` [Example 58, 4-(Indan-5-ylamino)-1-methyl-6-oxo-1,6-dihydro-pyridine-3-carboxylic acid ethyl ester] the same measures were 141 to 143 °C and 3.9 µM. `O=C(O)Cn1cc(C(=O)NCCCO)c(Nc2ccc(I)cc2F)cc1=O` [Example 24, (4-(2-Fluoro-4-iodoanilino)-5-{[(3-hydroxypropyl)amino]carbonyl}-2-oxo-1(2H)-pyridinyl)acetic acid] came in with a melting point of 199 to 202 °C. The half-inhibitory concentration (IC50) in data set [1] was at least 5 µM. With `CSc1ccc(Nc2cc(=O)n(C)cc2C(=O)NC(CO)CO)c(F)c1` [Example 89, 4-(2-Fluoro-4-methylsulfoanyl-phenylamino)-1-methyl-6-oxo-1,6, dihydro-pyridine-3-carboxylic acid (2-hydroxy-1-hydroxymethyl-ethyl)-amide], inhibition in data set [2] was half-maximal at 2.81 µM (IC50). On to `O=C(NCCCO)c1c[nH]c(=O)cc1Nc1ccc(I)cc1F` [Example 14, 4-(2-Fluoro-4-iodoanilino)-N-(3-hydroxypropyl)-6-oxo-1,6-dihydro-3-pyridinecarboxamide], for which the melting point lay in the range of 253 to 255 °C. In data set [1], the IC50 is at least 5 µM. As for `CNC(=O)c1cn(C)c(=O)cc1Nc1ccc(I)cc1F` [Example 51, 4-(2-Fluoro-4-iodoanilino)-N,1-dimethyl-6-oxo-1,6-dihydro-3-pyridinecarboxamide], the melting point was in the range of 252 to 254 °C. The molecule also gave an IC50 in data set [1] of at least 5 µM.

Molecule `C#Cc1ccc(Nc2cc(=O)n(C)cc2C(N)=O)c(F)c1` [Example 17, 4-(4-Ethynyl-2-fluoroanilino)-1-methyl-6-oxo-1,6-dihydro-3-pyridinecarboxamide] came in with a melting point of 269 to 272 °C. The molecule further returned an IC50 in data set [1] of 0.021 µM. For `Cn1cc(C(N)=O)c(Nc2ccc(I)cc2F)cc1=O` [Example 10, 4-(2-Fluoro-4-iodoanilino)-1-methyl-6-oxo-1,6-dihydro-3-pyridinecarboxamide], the IC50 in data set [1] came out at 0.0044 µM. Molecule `NC(=O)c1cn(CC(O)CO)c(=O)cc1Nc1ccc(I)cc1F` (centres unmarked) [Example 31, 1-(2,3-Dihydroxypropyl)-4-(2-fluoro-4-iodoanilino)-6-oxo-1,6-dihydro-3-pyridinecarboxamide] had a melting point of 210 to 213 °C. In addition, in data set [2], half-maximal inhibition (IC50) was put at 1.41 µM.

`O=C(NCCO)c1c[nH]c(=O)cc1Nc1ccc(I)cc1F` [Example 11, 4-(2-Fluoro-4-iodoanilino)-N-(2-hydroxyethyl)-6-oxo-1,6-dihydro-3-pyridinecarboxamide]: the melting point lay in the range of 254 to 256 °C. In data set [1], this molecule came in with a half-inhibitory concentration (IC50) of at least 5 µM. `Cn1cc(C(=O)NOCCO)c(Nc2ccc(I)cc2F)cc1=O` [Example 1, 4-(2-Fluoro-4-iodoanilino)-N-(2-hydroxyethoxy)-1-methyl-6-oxo-1,6-dihydro-3-pyridinecarboxamide] displayed a melting point of 148 to 151 °C. Moreover, in data set [2], the IC50 was 0.0438 µM. Further, it took 0.0049 µM to reach half-maximal inhibition in data set [1] (IC50). The molecule `Cn1cc(C(=O)NCCO)c(Nc2ccc(CCCO)cc2F)cc1=O` [Example 7, 4-[2-Fluoro-4-(3-hydroxypropyl)anilino]-N-(2-hydroxyethyl)-1-methyl-6-oxo-1,6-dihydro-3-pyridinecarboxamide] came in with a melting point of 177 to 179 °C. Moreover, the IC50 in data set [1] is at least 5 µM.

In turn, `Cn1cc(C(N)=O)c(Nc2ccc(Br)cc2F)cc1=O` [Example 40, 4-(4-Bromo-2-fluoroanilino)-1-methyl-6-oxo-1,6-dihydro-3-pyridinecarboxamide] had a melting point of 282 to 284 °C. Further, the 50% inhibitory concentration (IC50) in data set [1] was found to be 0.12 µM. In turn, `Cn1cc(C(N)=O)c(Nc2ccc(Cl)c(Cl)c2Cl)cc1=O` [Example 67, 1-Methyl-6-oxo-4-(2,3,4-trichloro-phenylamino)-1,6-dihydro-pyridine-3-carboxylic acid amide] had a concentration for half-maximal inhibition (IC50) in data set [2] of 0.076 µM. This lies in the double-digit nanomolar range.

`C=CCn1cc(C(N)=O)c(Nc2ccc(I)cc2F)cc1=O` [Example 30, 1-Allyl-4-(2-fluoro-4-iodoanilino)-6-oxo-1,6-dihydro-3-pyridinecarboxamide] returned a melting point of 215 to 217 °C. In data set [1], this molecule showed an IC50 of 0.43 µM. `Cn1cc(C(=O)NCCCO)c(Nc2ccc(I)cc2F)cc1=O` [Example 5, 4-(2-Fluoro-4-iodoanilino)-N-(3-hydroxypropyl)-1-methyl-6-oxo-1,6-dihydro-3-pyridinecarboxamide] came in with a melting point of 81 to 86 °C. The molecule further showed an IC50 in data set [2] of 0.06 µM. The molecule `Cn1cc(C(=O)NC(CO)(CO)CO)c(Nc2ccc(I)cc2F)cc1=O` [Example 47, 4-(2-Fluoro-4-iodoanilino)-N-[2-hydroxy-1,1-bis(hydroxymethyl)ethyl]-1-methyl-6-oxo-1,6-dihydro-3-pyridinecarboxamide] showed a melting point of 100 to 105 °C. This molecule also returned a half-inhibitory concentration (IC50) in data set [1] of at least 5 µM. For `Cn1cc(C(=O)OCC(N)(CO)CO)c(Nc2ccc(I)cc2F)cc1=O` [Example 48, 2-Amino-3-hydroxy-2-(hydroxymethyl)propyl-4-(2-fluoro-4-iodoanilino)-1-methyl-6-oxo-1,6-dihydro-3-pyridinecarboxylate] the same measures were 117 to 122 °C and at least 5 µM.

The molecule `CSc1ccc(Nc2cc(=O)n(C)cc2-c2nnc(NCC(O)CO)o2)c(F)c1` (centres unmarked) [Example 92, 5-[5-(2,3-dihydroxy-propylamino)-[1,3,4]oxadiazol-2-yl]-4-(2-fluoro-4-methylsulfanyl-phenylamino)-1-methyl-1H-pyridine-2-one] yielded an IC50 in data set [1] of 1.24 µM. `CCOC(=O)c1cn(C)c(=O)cc1Nc1ccc(C)c(C)c1` [Example 57, 4-(3,4-Dimethyl-phenylamino)-1-methyl-6-oxo-1,6-dihydro-pyridine-3-carboxylic acid ethyl ester] came in with a melting point of 153 to 154 °C. Also, the IC50 in data set [1] is at least 5 µM. With `CSc1ccc(Nc2cc(=O)n(C)cc2C(=O)NCCCO)c(F)c1` [Example 85, 4-(2-Fluoro-4-methylsulfanyl-phenylamino)-1-methyl-6-oxo-1,6-dihydro-pyridine-3-carboxylic acid (3-hydroxy-propyl)-amide], the IC50 in data set [1] stood at 0.15 µM. `Cn1cc(C(=O)NCCCO)c(Nc2ccc(CCCO)cc2F)cc1=O` [Example 9, 4-[2-Fluoro-4-(3-hydroxypropyl)anilino]-N-(3-hydroxypropyl)-1-methyl-6-oxo-1,6-dihydro-3-pyridinecarboxamide] returned a melting point of 161 to 164 °C. In addition, the concentration for half-maximal inhibition (IC50) in data set [1] was at least 5 µM. On to `CSc1ccc(Nc2cc(=O)n(C)cc2-c2nnc(NC(CO)CO)o2)c(F)c1` [Example 91, 4-(2-Fluoro-4-methylsulfanyl-phenylamino)-5-[5-(2-hydroxy-1-hydroxymethyl-ethylamino)-[1,3,4]oxadiazol-2-yl]-1-methyl-1H-pyridin-2-one], for which the IC50 in data set [1] was over 1 µM. Turning to `Cn1cc(C(=O)NCCCO)c(Nc2ccc3ccccc3c2)cc1=O` [Example 42, N-(3-Hydroxypropyl)-1-methyl-4-(2-naphthylamino)-6-oxo-1,6-dihydro-3-pyridinecarboxamide], the melting point is 78 to 83 °C. Also, in data set [1], it took 0.093 µM to reach half-maximal inhibition (IC50).
